Molecular target: T1, HAO derived from Nitrosomonas europaea (Nitrosomonas europaea, UniProt Q50925)
T1 construct: HAO was purified from ammonia oxidizing bacteria, and stored in a solution state or after drying; made in house; host or cells: Nitrosomonas europaea cells (native enzyme, not recombinant), purified by column chromatography
Assay: Determination of 50% inhibitory concentration against HAO by HAO fluorescence measurement (resazurin method)
Type: biochemical
Settings: n=4, nonlinear fitting
Procedure: The HAO fluorescence activity measurement was carried out to the compound library for screening by the resazurin method, and the inhibitory effect of these compounds was verified. The 40 kinds of compounds were dissolved in DMSO for molecular biology (available from Wako Pure Chemical Industries, Ltd.) or ultrapure water at a concentration of 100 mM, and further 2-fold dilution series was prepared with 16 series (100 mM, 50 mM, 25 mM, 12.5 mM, 6.25 mM, 3.13 mM, 1.56 mM, 0.78 mM, 0.39 mM, 0.19 mM, 97 μM, 48.8 μM, 24.4 μM, 12.2 μM, 6.1 μM and 3.1 μM) (final concentration becomes 1/200 concentration thereof). […] The plate was inserted into a fluorescence plate reader attached with a reagent injector (infinite M1000 PRO, manufactured by Tecan Co.), and 25 μL of 4 mM hydroxylamine stock solution for 4-fold dilution was added per well, so that an amount of the hydroxylamine to that of the resazurin was made 10-fold amount (molar ratio) in the reaction system. After 2 hours of incubation, fluorescence measurement (excitation wavelength 562 nm: wavelength width 20 nm, measurement wavelength 592 nm: wavelength width 20 nm) was carried out. Candidate compound A was selected as a inhibitor which decreased the fluorescence intensity to 10% or less compared with without-inhibitor condition. […]

T1 sequence (Q50925 25-570): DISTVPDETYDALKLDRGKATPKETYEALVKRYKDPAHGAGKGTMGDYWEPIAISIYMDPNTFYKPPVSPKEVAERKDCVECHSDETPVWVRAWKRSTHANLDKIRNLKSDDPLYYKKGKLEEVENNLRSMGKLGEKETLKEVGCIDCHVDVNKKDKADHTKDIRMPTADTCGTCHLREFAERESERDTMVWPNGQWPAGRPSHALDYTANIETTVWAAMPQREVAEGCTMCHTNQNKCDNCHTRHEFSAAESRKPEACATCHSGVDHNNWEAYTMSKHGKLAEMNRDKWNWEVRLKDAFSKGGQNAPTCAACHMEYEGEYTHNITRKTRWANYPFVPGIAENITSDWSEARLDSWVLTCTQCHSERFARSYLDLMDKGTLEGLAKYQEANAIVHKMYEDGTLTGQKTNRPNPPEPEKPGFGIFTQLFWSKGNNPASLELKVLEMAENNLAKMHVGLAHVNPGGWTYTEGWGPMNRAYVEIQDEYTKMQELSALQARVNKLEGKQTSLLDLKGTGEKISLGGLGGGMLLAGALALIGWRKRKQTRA

Which IC50 does the source give for `NNc1ccccc1` [phenylhydrazine] here?
The IC50 was 276 nM.
